# Laboratory results published in publication PMC7377239, “Cardiovascular Effects of Polychlorinated Biphenyls and Their Major Metabolites” (Environmental Health Perspectives, 2020).
# Read-outs that look alike come from different tables or passages of the source.
# Key:
# [1] = tested on: iCell endothelial cells (human iPSC-derived ECs); assay: Tube formation (tubulogenesis) assay in iCell endothelial cells, 18 h; type: cell-based; conditions: Homo sapiens, Endothelial cell, 18 hr; for activity at 0.1 µM: 0.10 µM
# Summary of the method: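 Tube formation was measured by calcein AM imaging after overnight compound exposure (37°C, 0.5% DMSO vehicle) of human iPSC-derived ECs, 7,500/well, on reduced-growth-factor Geltrex in starvation medium. Vehicle-normalized data fitted to four-parameter logistic; POD set at one vehicle SD; without response, 100 μM taken as NOAEL.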
# [2] = tested on: HUVECs; assay: Tube formation (tubulogenesis) assay in HUVECs, 18 h; type: cell-based, human; conditions: Homo sapiens, HUVEC, 18 h; for activity at 0.1 µM: 0.10 µM
# Summary of the method: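 HUVECs (passage 1–5) seeded on reduced-growth-factor basement membrane and exposed to compounds overnight at 37°C, 5% CO2, in 2× maintenance medium with 12.5 ng/mL VEGF; 0.5% DMSO vehicle. Calcein AM-stained tube networks imaged and analysed; vehicle-normalized readouts fit to four-parameter logistic, POD set at one SD of vehicle means.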
# [3] = iPSC-EC tube formation, 0.00 µM control = 100.00, read-out: endo.mtl.18hr
# [4] = iPSC-EC tube formation, 0.00 µM control = 100.00, read-out: endo.tlps.18hr
# [5] = iPSC-EC tube formation, 0.00 µM control = 100.00, read-out: endo.tta.18hr
# [6] = iPSC-EC tube formation, 0.00 µM control = 100.00, read-out: endo.ttl.18hr
# [7] = HUVECs, 0.00 µM = 100.00, read-out: huvec.mtl.18hr
# [8] = HUVECs, 0.00 µM = 100.00, read-out: huvec.tlps.18hr
# [9] = HUVECs, 0.00 µM = 100.00, read-out: huvec.tta.18hr
# [10] = HUVECs, 0.00 µM = 100.00, read-out: huvec.ttl.18hr
smiles,measurement,setting,value
Oc1ccc(-c2ccc(Cl)cc2)cc1 [4'-OH PCB3],activity at 0.01 µM,[1]; [3],87.5%
same,activity at 0.01 µM,[1]; [4],80.1%
same,activity at 0.01 µM,[1]; [5],97.5%
same,activity at 0.01 µM,[1]; [6],93.3%
same,activity at 0.1 µM,[1]; [3],89.4%
same,activity at 0.1 µM,[1]; [4],84.6%
same,activity at 0.1 µM,[1]; [5],89.9%
same,activity at 0.1 µM,[1]; [6],86.6%
same,activity at 1 µM,[1]; [3],90.3%
same,activity at 1 µM,[1]; [4],73.5%
same,activity at 1 µM,[1]; [5],82.7%
same,activity at 1 µM,[1]; [6],81.3%
same,activity at 10 µM,[1]; [3],55.5%
same,activity at 10 µM,[1]; [4],31.4%
same,activity at 10 µM,[1]; [5],35.4%
same,activity at 10 µM,[1]; [6],35%
same,activity at 100 µM,[1]; [3],49.2%
same,activity at 100 µM,[1]; [4],11.3%
same,activity at 100 µM,[1]; [5],0.34%
same,activity at 100 µM,[1]; [6],0.48%
same,minimal effective concentration,"[1]; iPSC-EC tube formation, top concentration 100.00 µM, read-out: endo.mtl.18hr POD",1.21 µM
same,minimal effective concentration,"[1]; iPSC-EC tube formation, top concentration 100.00 µM, read-out: endo.tlps.18hr POD",0.19 µM
same,minimal effective concentration,"[1]; iPSC-EC tube formation, top concentration 100.00 µM, read-out: endo.tta.18hr POD",1.16 µM
same,minimal effective concentration,"[1]; iPSC-EC tube formation, top concentration 100.00 µM, read-out: endo.ttl.18hr POD",1.12 µM
same,activity at 0.01 µM,[2]; [7],101%
same,activity at 0.01 µM,[2]; [8],106%
same,activity at 0.01 µM,[2]; [9],113%
same,activity at 0.01 µM,[2]; [10],119%
same,activity at 0.1 µM,[2]; [7],94%
same,activity at 0.1 µM,[2]; [8],89.7%
same,activity at 0.1 µM,[2]; [9],88.3%
same,activity at 0.1 µM,[2]; [10],93.3%
same,activity at 1 µM,[2]; [7],93.7%
same,activity at 1 µM,[2]; [8],76.2%
same,activity at 1 µM,[2]; [9],98.5%
same,activity at 1 µM,[2]; [10],102%
same,activity at 10 µM,[2]; [7],72.2%
same,activity at 10 µM,[2]; [8],66.1%
same,activity at 10 µM,[2]; [9],68.8%
same,activity at 10 µM,[2]; [10],71.7%
same,activity at 100 µM,[2]; [7],76.3%
same,activity at 100 µM,[2]; [8],34%
same,activity at 100 µM,[2]; [9],11.6%
same,activity at 100 µM,[2]; [10],8.84%
same,minimal effective concentration,"[2]; HUVECs, top concentration 100.00 µM, read-out: huvec.mtl.18hr POD",1.21 µM
same,minimal effective concentration,"[2]; HUVECs, top concentration 100.00 µM, read-out: huvec.tlps.18hr POD",0.51 µM
same,minimal effective concentration,"[2]; HUVECs, top concentration 100.00 µM, read-out: huvec.tta.18hr POD",5.36 µM
same,minimal effective concentration,"[2]; HUVECs, top concentration 100.00 µM, read-out: huvec.ttl.18hr POD",5.16 µM
Oc1ccc(-c2ccc(Cl)cc2)cc1 [4'-OH-PCB 3],minimal effective concentration,"[1]; endothelial cells (endo), tube formation mtl, read-out: POD endo.mtl.18hr",1.21 µM
same,minimal effective concentration,"[1]; endothelial cells (endo), tube formation tlps, read-out: POD endo.tlps.18hr",0.19 µM
same,minimal effective concentration,"[1]; endothelial cells (endo), tube formation tta, read-out: POD endo.tta.18hr",1.16 µM
same,minimal effective concentration,"[1]; endothelial cells (endo), tube formation ttl, read-out: POD endo.ttl.18hr",1.12 µM
same,minimal effective concentration,"[2]; tube formation mtl, read-out: POD huvec.mtl.18hr",1.21 µM
same,minimal effective concentration,"[2]; tube formation tlps, read-out: POD huvec.tlps.18hr",0.51 µM
same,minimal effective concentration,"[2]; tube formation tta, read-out: POD huvec.tta.18hr",5.36 µM
same,minimal effective concentration,"[2]; tube formation ttl, read-out: POD huvec.ttl.18hr",5.16 µM
